Test [1] deals with MV4-11 (FLT3 ITD+/+ mutant type). The test is described as follows: In vitro growth inhibition (GI50), MV4-11. In kind it is cell-based, human. Conditions: for growth inhibitory effect on MV4-11 (in words): FLT3-ITD positive cell line MV4-11; for GI50: Homo sapiens; for inhibition activity against the growth of MV4-11 cells compared with AC220: compared with the control compound AC220.

The next test concerns NCI-H292 (EGFR WT). The test is described as follows: In vitro growth inhibition (GI50), NCI-H292. The conditions noted are these: Homo sapiens. In kind it is cell-based. An excerpt:
(§1) Tumor cell line is an effective cell model for studying the inhibition of tumor cell growth or proliferation in vitro. In the present invention, a representative tumor cell line was selected to determine the cell growth inhibition activity of the present compound. All cell lines used were from ATCC, DSMZ, and the Cell Bank of the Chinese Academy of Sciences. Cell culture conditions and methods were in accordance with the requirements of each cell line. Cells were subcultured in vitro for no more than 3 passages each time, and as required, single-clone purification and identification of cell lines could be carried out.
(§2) The cell culture media used were RPMI1640 (Gibco), MEM (Gibco), McCOY'S5A (Gibco), and IMDM (Gibco). The complete medium was prepared by supplement with 5˜20% fetal calf serum (Gibco), 1% double-antibiotics (10000 units/mL penicillin and 10000 units/mL), 2 mM glutamine or 1 mM sodium pyruvate, respectively.
(§3) Human epidermal cancer cell line A431 (EGFR WT, amplification and high expression, from Shanghai Cell Bank of Chinese Academy of Sciences and ATCC), human lung cancer cell line NCI-H292 (EGFR WT, purchased from Shanghai Cell Bank of Chinese Academy of Sciences), NSCLC cell lines PC-9 and HCC827 (EGFR exon19 E746-A750 deletion, two cell lines are sensitive to the first-generation EGFR PTK inhibitor), NSCLC cell line NCI-H1975 (EGFR L858R/T790M and the first-generation EGFR inhibitor resistance, ATCC) were cultured with 1×RPMI1640 complete medium (supplement with 10% FBS), respectively.
(§4) Adherent cells were digested with 0.25% pancreatin-EDTA (Gibco). The suspension cells were collected by centrifugation. The supernatant was discarded and the cell pellet was resuspended and counted. Different cell concentrations (5˜10×10^4 cells/mL) were prepared according to the growth cycle of each cell line and then seeded on a 96-well plate (Corning), 100 μL/well. The cells were incubated overnight at 37° C., 5% CO2. The compounds were added to the cells on the second day with 2 wells in parallel. The final concentration of organic solvent shall not exceed 1%. The cells were continually incubated for 3 to 5 days, and then subjected to MTT assay.
(§5) The compound of the present invention and the control compound were dissolved in DMSO (Sigma) respectively, with the purity of more than 98%. The compound was stored in a concentration of 10 mM at −20° C. and diluted to 2- or 10-fold series prior to use.
(§6) Dojindo CCK8 reagent kit was used as MTT assay. THERMO […] FC meter was used as microplate reader.
(§7) For adherent cells, culture medium was removed and immediately replaced with the fresh prepared medium which contains 10% CCK8 reagent (100 μL/well). For the suspension cells, CCK8 was directly added to 10% of the final concentration. The cells were continually incubated for 1˜4 h. When a dark yellow color could be observed in the solvent control wells, the absorbance value at OD450 nm was measured and the cell growth rate was calculated according to the following formula: Cell Growth Rate (%)=100*(T−T0)/(C−T0) T=optical density of drug treatment cell well—optical density of blank control well; T0=optical density of cell well before drug treatment—optical density of blank control well; C=optical density of cell well of solvent control group—optical density of blank control well. The concentration value of 50% inhibition of cell growth (GI50) was calculated according to the drug concentration and cell growth rate curve. The experiment was independently repeated 1˜3 times, and subject to biological statistical analysis. 4. Experimental Results
(§8) Tumor cell growth inhibition test was performed by selecting representative compounds (compounds 4, 11, 12, 16, 27, 68, 71, 77, 79, 89 and 116 of the present invention). The initial concentration of the compound was 5,000 nM, then it was serially diluted by 2-fold or 10-fold to 0.01 nM. The GI50 value of each test compound was calculated according to the GI50 assay and calculation method. […]

The test system of test [2] is HCC827 (EGFR exon19 E746-A750 deletion). The experiment in a line: In vitro growth inhibition (GI50), HCC827. It is filed as cell-based. Conditions: Homo sapiens; HCC827, EGFR DelE746-A750.
Text: as §1, §2, §3, §4, §5, §6, §7, §8

[3] abbreviates: MV4-11, Cell lines of leukemia, read-out: GI 50 MV4-11 FLT3 (ITD +/+).
[4] abbreviates: MV4-11, FLT3 ITD +/+, read-out: GI50.
[5] abbreviates: FLT3-ITD positive-expressing cell line MV4-11, Table 3, read-out: GI50 value, MV4-11.

Read-outs that look alike come from different tables or passages of the source. Bounds are passed on as bounds.

As for `CC(C)(C)c1cc(NC(=O)Nc2ccc(-n3cnc4cc(O)ccc43)cc2)no1` [Compound 4, 1-(5-tert-butyl-isoxazol-3-yl)-3-[4-(5-hydroxy-benzimidazol-1-yl)-phenyl]-urea], the “growth inhibitory effect on MV4-11 (in words)” value (from here on “growth inhibitory effect”) in test [1] is “strong growth inhibitory effects”. The GI50 was 0.1 to 1 nM in test [1] (setting [3]), 0.12 nM in test [1] (setting [4]), above 2500 nM in the test with NCI-H292 (EGFR WT) and above 2500 nM in test [2].

Take `CC(C)(C)c1cc(NC(=O)Nc2ccc(-n3cnc4cc(OCCO)ccc43)cc2)no1` [Compound 11, 1-(5-tert-butyl-isoxazol-3-yl)-3-{4-[5-(2-hydroxy-ethoxyl)-benzimidazol-1-yl]-phenyl]-urea]: the “growth inhibitory effect” value in test [1] is “strong growth inhibitory effects”. Also, the GI50 is 0.01 to 0.1 nM in test [1] (setting [3]), 0.07 nM in test [1] (setting [4]), above 2500 nM with NCI-H292 (EGFR WT) and above 2500 nM in test [2]. In addition, the “inhibition activity against the growth of MV4-11 cells compared with AC220” value (shortened to “inhibition activity … compared with AC220”) in test [1] is listed as “stronger inhibition activity”.

Turning to `CC(C)(C)c1cc(NC(=O)Nc2ccc(-n3cnc4cc(OCCN5CCOCC5)ccc43)cc2)no1` [Compound 16, 1-(5-tert-butyl-isoxazol-3-yl)-3-{4-[5-(2-morpholin-4-yl-ethoxyl)-benzimidazol-1-yl]-phenyl}-urea], the GI50 in test [1] (setting [3]) is 0.1 to 1 nM; in test [1] (setting [5]) it was 0.039 to 0.8 nM; in test [1] (setting [4]) it was 0.48 nM; in the test on NCI-H292 (EGFR WT) it was above 2500 nM; in test [2], above 2500 nM.

On to `CC(C)(C)c1cc(NC(=O)Nc2ccc(-n3cnc4ccc(OCCN5CCOCC5)cc43)cc2)no1` [Compound 27, 1-(5-tert-butyl-isoxazol-3-yl)-3-{4-[6-(2morpholin-4-yl-ethoxyl)-benzimidazol-1-yl]-phenyl}-urea], for which the GI50 in test [1] (setting [3]) is 0.1 to 1 nM; in test [1] (setting [5]), 0.039 to 0.8 nM; in test [1] (setting [4]), 0.78 nM; in the test on NCI-H292 (EGFR WT) it was above 2500 nM; in test [2], above 2500 nM.

Regarding `CC(C)(C)c1cc(NC(=O)Nc2ccc(-n3cnc4ccccc43)cc2)[nH]n1` [Compound 68, 1-(4-benzimidazol-1-yl-phenyl)-3-(5-tert-butyl-2H-pyrazol-3-yl)-urea], the GI50 was 0.1 to 1 nM in test [1] (setting [3]); 0.039 to 0.8 nM in test [1] (setting [5]); 0.48 nM in test [1] (setting [4]); above 2500 nM in the test with NCI-H292 (EGFR WT); above 2500 nM in test [2].

As to `COc1ccc2c(c1)ncn2-c1ccc(NC(=O)Nc2cc(C(C)(C)C)n[nH]2)cc1` [Compound 71, 1-(5-tert-butyl-2H-pyrazol-3-yl)-3-[4-(5-methoxyl-benzimidazol-1-yl)-phenyl]-urea], the GI50 is 0.01 to 0.1 nM in test [1] (setting [3]); 0.039 to 0.8 nM in test [1] (setting [5]); 0.039 nM in test [1] (setting [4]); above 2500 nM in the test on NCI-H292 (EGFR WT); above 2500 nM in test [2]. Moreover, in test [1], the “inhibition activity … compared with AC220” value was “stronger inhibition activity”.

On to `COCCOc1ccc2c(c1)ncn2-c1ccc(NC(=O)Nc2cc(C(C)(C)C)n[nH]2)cc1` [Compound 77, 1-(5-tert-butyl-2H-pyrazol-3-yl)-3-{4-[5-(2-methoxyl-ethoxyl)-benzimidazol-1-yl]-phenyl}-urea], for which the GI50 in test [1] (setting [3]) is 0.01 to 0.1 nM; in test [1] (setting [5]) it was 0.039 to 0.8 nM; in test [1] (setting [4]), 0.093 nM; in the test with NCI-H292 (EGFR WT), above 2500 nM; in test [2], above 2500 nM. Moreover, in test [1], the “inhibition activity … compared with AC220” value was “stronger inhibition activity”.

For the compound `CC(C)(C)c1cc(NC(=O)Nc2ccc(-n3cnc4cc(OCCO)ccc43)cc2)[nH]n1` [Compound 79, 1-(5-tert-butyl-2H-pyrazol-3-yl)-3-{4-[5-(2-hydroxy-ethoxyl)-benzimidazol-1-yl]-phenyl]urea], the “growth inhibitory effect” value in test [1] was “strong growth inhibitory effects”. Besides, the GI50 in test [1] (setting [3]) was 0.01 to 0.1 nM; in test [1] (setting [4]) it was 0.047 nM; in the test with NCI-H292 (EGFR WT), above 2500 nM; in test [2] it was above 2500 nM. Also, the “inhibition activity … compared with AC220” value in test [1] is given as “stronger inhibition activity”.

`CC(C)(C)c1cc(NC(=O)Nc2ccc(-n3cnc4cc(OCCN5CCOCC5)ccc43)cc2)[nH]n1` [Compound 89, 1-(5-tert-butyl-2H-pyrazol-3-yl)-3-{4-[5-(2-morpholin-4-yl-ethoxyl)-benzimidazol-1-yl]-phenyl}-urea]: the GI50 in test [1] (setting [3]) was 0.01 to 0.1 nM; in test [1] (setting [5]), 0.039 to 0.8 nM; in test [1] (setting [4]) it was 0.041 nM; in the test with NCI-H292 (EGFR WT) it was above 2500 nM; in test [2] it was above 2500 nM. Also, the “inhibition activity … compared with AC220” value in test [1] is listed as “stronger inhibition activity”.

Consider `CC(C)(C)c1cc(N)n(C(=O)Nc2ccc(-n3cnc4ccccc43)cc2)n1` [Compound 116, 5-amino-3-tert-butyl-pyrazol-1-carboxylic acid (4-benzimidazol-1-yl-phenyl)-amide], for which the GI50 in test [1] (setting [3]) was 10 to 100 nM; in test [1] (setting [5]), 0.039 to 0.8 nM; in test [1] (setting [4]) it was 1.51 nM; in the test on NCI-H292 (EGFR WT), above 2500 nM; in test [2], above 2500 nM.
